The subject of assay [1] is PORCN. The settings on record: HEK293 cells; read-out: IC50, Wnt3A-mediated activation of a multimerized TCF-binding site driving luciferase; cited from earlier work.
Assay [2] relates to PORCN. The settings on record: read-out: EC50, Porcn inhibition; cited from earlier work.
Assay [3] concerns Wnt processing and secretion. The settings on record: cell-free assay; read-out: 1050, inhibition of Wnt processing and secretion; cited from earlier work.
Assay [4] relates to Wnt-stimulated cellular responses. The settings on record: cited from earlier work.
For assay [5], the system named is spontaneous synaptic activity (EPSCs) of neurons in hCS slices. The assay is described as follows: Spontaneous EPSCs in acute hCS slice preparation (whole cell recording). In kind it is cell-based, human. To be noted: kynurenic acid 1 mM bath application; n=6 cells, P=0.0008. The method, then: hCS were removed from Neurobasal-B27 media, quickly fixed to a block of 4% agarose, and covered in ice-cold oxygenated (95% 02 and 5% CO2) ACSF containing 126 mM NaCl, 2.5 mM KCl, 1.25 mM NaH2PO4, 2 mM MgCl2, 2 mM CaCl2), 26 mM NaHCO3and 10 mM glucose. 250 μm thick slices were cut using a Leica VT1200 vibrating microtome. After slicing, sections were moved to continuously oxygenated warm (˜32° C.) ACSF. Slices were incubated in warm ACSF for at least one hour prior to recording.
Whole cell patch clamp recordings were made at 22-25° C. Slices were superfused at a rate of 3 ml/min. Patch-clamp recordings were made using a MultiClamp 700A amplifier with Clampex 10.3 software. 3-5 MO borosilicate glass recording electrodes were filled with internal solution containing 120 mM potassium gluconate, 11 mM KCl, 1 mM MgCl2, 1 mM CaCl2, 10 mM HEPES, 1 mM EGTA, pH adjusted to 7.4 with KOH (290 mOsm). To determine if EPSCs recorded in voltage clamp are glutamate dependent, the glutamate receptor blocker kynurenic acid (1 mM) was added to the bath solution following at minimum 5 min of baseline recording. Evoked responses were produced by extracellular monopolar tungsten electrode placed 100-300 μm from the whole cell recording. […]

Assay [6] deals with voltage-gated Na+ channels. In kind it is cell-based, human.
For another assay, the system named is BMP signaling. To be noted: cited from earlier work.
The subject of a further assay is Wnt signaling. The settings on record: TM3 cells; read-out: IC50, inhibition of Wnt signaling; cited from earlier work.
The target in assay [7] is element-binding protein (CBP) (Homo sapiens, UniProt Q92793). The settings on record: cited from earlier work.
In a further assay the target is T1, TNKS2 (Homo sapiens, UniProt Q9H2K2).
T1 sequence (Q9H2K2 1-1166): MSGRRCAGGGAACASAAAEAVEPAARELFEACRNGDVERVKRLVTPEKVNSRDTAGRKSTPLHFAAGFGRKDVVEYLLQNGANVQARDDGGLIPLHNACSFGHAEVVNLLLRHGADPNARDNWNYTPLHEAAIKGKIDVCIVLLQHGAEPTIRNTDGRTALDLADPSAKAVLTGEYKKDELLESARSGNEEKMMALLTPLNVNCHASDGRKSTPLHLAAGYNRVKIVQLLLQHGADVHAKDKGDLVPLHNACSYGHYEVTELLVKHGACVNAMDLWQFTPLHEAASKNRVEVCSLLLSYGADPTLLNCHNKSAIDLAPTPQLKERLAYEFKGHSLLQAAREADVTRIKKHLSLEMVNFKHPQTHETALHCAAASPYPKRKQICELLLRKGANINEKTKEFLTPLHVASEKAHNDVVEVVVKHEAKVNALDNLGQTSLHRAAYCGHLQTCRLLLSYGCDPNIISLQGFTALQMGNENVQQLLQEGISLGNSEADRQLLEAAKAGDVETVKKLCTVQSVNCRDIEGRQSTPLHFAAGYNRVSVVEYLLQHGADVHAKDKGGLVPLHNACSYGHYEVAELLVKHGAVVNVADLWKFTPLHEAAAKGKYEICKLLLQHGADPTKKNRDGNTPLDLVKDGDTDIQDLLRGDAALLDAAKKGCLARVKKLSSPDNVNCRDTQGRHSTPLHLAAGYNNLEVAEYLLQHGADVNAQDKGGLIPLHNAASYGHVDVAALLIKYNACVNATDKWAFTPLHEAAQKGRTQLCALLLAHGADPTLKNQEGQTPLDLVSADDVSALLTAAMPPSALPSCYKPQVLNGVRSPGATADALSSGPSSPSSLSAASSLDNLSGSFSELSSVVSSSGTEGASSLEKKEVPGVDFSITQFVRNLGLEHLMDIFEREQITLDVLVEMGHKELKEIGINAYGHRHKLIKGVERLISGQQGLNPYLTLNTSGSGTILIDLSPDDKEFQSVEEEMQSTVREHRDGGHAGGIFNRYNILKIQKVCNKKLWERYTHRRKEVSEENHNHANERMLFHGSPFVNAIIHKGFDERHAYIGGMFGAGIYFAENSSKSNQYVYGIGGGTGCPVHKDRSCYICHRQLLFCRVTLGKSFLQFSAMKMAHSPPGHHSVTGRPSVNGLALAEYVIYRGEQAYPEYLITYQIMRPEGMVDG
The settings on record: cited from earlier work.

“Also recorded” adds a separate entry of the source.

Chain of element-binding protein (CBP) (Q92793 whole entry): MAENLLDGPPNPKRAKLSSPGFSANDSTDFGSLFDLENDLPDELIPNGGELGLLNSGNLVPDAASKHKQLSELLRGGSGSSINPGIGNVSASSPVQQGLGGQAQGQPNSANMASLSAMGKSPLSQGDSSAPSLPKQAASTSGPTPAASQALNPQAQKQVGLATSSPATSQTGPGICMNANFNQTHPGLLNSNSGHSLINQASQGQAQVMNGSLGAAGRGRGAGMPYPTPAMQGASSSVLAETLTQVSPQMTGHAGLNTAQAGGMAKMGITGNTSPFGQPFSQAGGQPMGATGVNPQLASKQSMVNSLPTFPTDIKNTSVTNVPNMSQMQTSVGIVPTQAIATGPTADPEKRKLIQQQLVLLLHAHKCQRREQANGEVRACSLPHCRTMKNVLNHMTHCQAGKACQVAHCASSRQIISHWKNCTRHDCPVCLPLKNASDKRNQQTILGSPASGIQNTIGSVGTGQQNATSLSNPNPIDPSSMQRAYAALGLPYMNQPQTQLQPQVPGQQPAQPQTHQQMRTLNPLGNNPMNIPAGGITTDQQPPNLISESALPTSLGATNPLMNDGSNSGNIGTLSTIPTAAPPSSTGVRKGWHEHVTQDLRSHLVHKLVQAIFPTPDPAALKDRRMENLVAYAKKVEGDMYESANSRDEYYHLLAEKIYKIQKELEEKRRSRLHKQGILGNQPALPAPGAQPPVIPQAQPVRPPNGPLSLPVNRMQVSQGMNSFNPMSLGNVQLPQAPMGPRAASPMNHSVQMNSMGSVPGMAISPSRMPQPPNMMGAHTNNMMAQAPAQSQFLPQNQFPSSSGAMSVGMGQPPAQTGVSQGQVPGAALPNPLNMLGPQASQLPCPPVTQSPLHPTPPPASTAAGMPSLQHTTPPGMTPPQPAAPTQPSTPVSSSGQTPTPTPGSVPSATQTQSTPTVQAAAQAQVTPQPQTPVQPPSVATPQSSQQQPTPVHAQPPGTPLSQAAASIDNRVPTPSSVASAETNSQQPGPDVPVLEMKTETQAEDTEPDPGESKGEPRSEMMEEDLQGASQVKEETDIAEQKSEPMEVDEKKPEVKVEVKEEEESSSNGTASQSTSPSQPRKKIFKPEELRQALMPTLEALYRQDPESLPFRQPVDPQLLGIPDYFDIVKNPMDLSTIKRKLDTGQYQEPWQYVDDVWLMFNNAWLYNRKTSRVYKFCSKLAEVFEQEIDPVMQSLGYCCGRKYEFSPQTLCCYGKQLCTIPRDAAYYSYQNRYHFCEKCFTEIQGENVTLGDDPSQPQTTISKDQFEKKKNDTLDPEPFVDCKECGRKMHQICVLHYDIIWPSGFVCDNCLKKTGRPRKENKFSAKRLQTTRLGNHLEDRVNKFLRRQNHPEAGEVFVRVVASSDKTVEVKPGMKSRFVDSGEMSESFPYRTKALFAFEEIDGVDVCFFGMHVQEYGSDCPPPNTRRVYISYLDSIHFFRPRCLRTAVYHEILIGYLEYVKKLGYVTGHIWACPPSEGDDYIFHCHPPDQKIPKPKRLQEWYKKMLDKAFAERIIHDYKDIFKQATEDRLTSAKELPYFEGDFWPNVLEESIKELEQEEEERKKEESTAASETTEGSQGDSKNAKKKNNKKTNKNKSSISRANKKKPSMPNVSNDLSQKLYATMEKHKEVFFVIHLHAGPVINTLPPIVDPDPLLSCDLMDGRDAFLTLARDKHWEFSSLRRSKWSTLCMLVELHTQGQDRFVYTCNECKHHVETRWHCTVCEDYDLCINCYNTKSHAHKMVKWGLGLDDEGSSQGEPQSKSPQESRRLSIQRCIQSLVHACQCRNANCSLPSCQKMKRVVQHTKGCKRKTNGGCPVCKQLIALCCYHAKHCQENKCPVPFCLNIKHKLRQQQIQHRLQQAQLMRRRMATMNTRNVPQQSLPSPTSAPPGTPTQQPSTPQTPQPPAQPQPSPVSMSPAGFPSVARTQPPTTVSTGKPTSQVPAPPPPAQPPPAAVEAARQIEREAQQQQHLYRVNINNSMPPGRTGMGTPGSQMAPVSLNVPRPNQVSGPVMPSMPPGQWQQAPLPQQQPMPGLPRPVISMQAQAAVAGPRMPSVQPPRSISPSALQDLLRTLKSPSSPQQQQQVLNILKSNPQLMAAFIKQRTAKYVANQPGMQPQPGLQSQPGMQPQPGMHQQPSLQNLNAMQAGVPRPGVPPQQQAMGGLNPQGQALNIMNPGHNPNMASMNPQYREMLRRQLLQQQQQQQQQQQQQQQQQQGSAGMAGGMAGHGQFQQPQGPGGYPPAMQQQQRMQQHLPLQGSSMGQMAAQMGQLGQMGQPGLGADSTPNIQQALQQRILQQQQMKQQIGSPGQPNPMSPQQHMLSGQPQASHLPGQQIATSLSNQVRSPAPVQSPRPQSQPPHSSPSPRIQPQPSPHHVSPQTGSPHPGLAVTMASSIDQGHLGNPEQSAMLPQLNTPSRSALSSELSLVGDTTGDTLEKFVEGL

As for Wnt-059 (C59), the IC50 in the assay on PORCN [1] was 0.074 nM. As for `O=C(CSc1nc2c(c(=O)n1-c1ccccc1)SCC2)Nc1ccc(-c2ccccc2)cn1` [IWP-L6], the half-maximal effective concentration (EC50) in the assay with PORCN [2] is 0.5 nM. For the compound `Cc1ccc2nc(NC(=O)CSc3nc4c(c(=O)n3-c3ccccc3)SCC4)sc2c1` [IWP-2], in assay [3], the IC50 is 27 nM. Besides, the “effect against Wnt-stimulated cellular responses” value in assay [4] was “no effect”. On to `O=C(O)c1cc(=O)c2ccccc2[nH]1` [kynurenic acid], for which the “spontaneous synaptic activity (EPSCs) in sliced hCS” value in [5] is “significantly reduced; also recorded: blocked”.

As for `NC1=N[C@H](O)[C@H]2[C@H]3O[C@]4(O)O[C@@H]([C@@H](O)[C@@]2(N1)[C@@H]4O)[C@]3(O)CO` [TTX, tetrodotoxin], the “block of transient inward voltage-gated Na+ current” value in assay [6] is on record as “blocks”. For `NC(=O)c1ccc(-c2nc(-c3ccc4c(c3)OCO4)c(-c3ccccn3)[nH]2)cc1` [SB-431542], the “effect on BMP signaling” value in the assay with BMP signaling is “no effect”. Consider `Cc1cc(-c2ncc(CC(=O)Nc3ccc(-c4cnccn4)cn3)cc2C)ccn1` [LGK-974], for which the IC50 with Wnt signaling was 0.4 nM. With `O=C1[C@H](Cc2ccc(O)cc2)N2C(=O)CCN(C(=O)NCc3ccccc3)[C@H]2CN1Cc1cccc2ccccc12` [ICG-001], the IC50 in assay [7] was 3000 nM. Consider `COc1ccc(-n2c(SCCCN3C(=O)c4cccc5cccc(c45)C3=O)nnc2-c2ccncc2)cc1` [WIKI4], for which the IC50 on TNKS2 is 15 nM.

By EC50 is commonly meant the midpoint of the concentration-response curve.

Values taken from patent US10494602B1, “Functional astrocytes and cortical neurons from induced pluripotent stem cells and methods of use thereof” (The Board of Trustees of the Leland Stanford Junior …, priority 2015, dated 2019).
